Reference: publication PMC7139549, “TLD1433 Photosensitizer Inhibits Conjunctival Melanoma Cells in Zebrafish Ectopic and Orthotopic Tumour Models” (Cancers, 2020)

System: CRMM1 cells
Test: Annexin-V-FITC / Propidium Iodide FACS, CRMM1
Type: cell-based, Human
Excerpt: Depending on the nature and intracellular localization of a PS, the light dose, and the cell type, PDT is known to provoke either necrosis, apoptosis, or autophagy. In order to investigate the death mechanism induced by green light-activated TLD1433 in CRMM1 and CRMM2 cells, the cells were stained with Annexin V and propidium iodide, and further analysed by fluorescence-activated cell sorting (FACS).
Figure 3 Green light irradiation of TLD1433 induces apoptosis and necrosis in CRMM1 and CRMM2 cells. (A) CRMM1 and (C) CRMM2 were stained with Annexin-V-FITC and Propidium Iodide. The percentages of live, early apoptotic, later apoptotic and necrotic cells in CRMM1 (B) and CRMM2 (D) were counted by FACS. Results are presented as means ± SD from three independent experiments. […]

## Cc1ccnc(-c2cc(C)ccn2)c1.Cc1ccnc(-c2cc(C)ccn2)c1.[Cl-].[Cl-].[Ru+2].c1csc(-c2ccc(-c3ccc(-c4nc5c6cccnc6c6ncccc6c5[nH]4)s3)s2)c1 [TLD1433]
CRMM1, dark TLD1433 group
  cell fate by FACS (in words): most cells were found alive
CRMM1, light-activated TLD1433 group
  cell fate by FACS (in words): about half of the cells were found dead
